Measured values taken from patent US20240270762A1, “PENICILLIN-BINDING PROTEIN INHIBITORS” (priority 2021, published 2024).
pIC50: −log10 of the molar value. Converted amounts (≈) assume the structure as drawn. Where two headings read alike, the source gives them in different places.

Experiments:
N. gonorrhoeae FA1090 = assay: Liquid broth MIC in Fastidious broth; conditions: Neisseria gonorrhoeae
N. gonorrhoeae WHO M = assay: Liquid broth MIC in Fastidious broth; conditions: Neisseria gonorrhoeae
N. gonorrhoeae WHO Q = assay: Liquid broth MIC in Fastidious broth; conditions: Neisseria gonorrhoeae
N. gonorrhoeae WHO X = assay: Liquid broth MIC in Fastidious broth; conditions: Neisseria gonorrhoeae
Description: Liquid broth-based assays were used for antibacterial testing of PBP inhibitors in Neisseria gonorrhoeae. Briefly, cryo-preserved bacterial cultures of clinical strains were streaked for isolation on Chocolate Agar (72 g/L (2×) GC Agar Base (BD #228950) and 2% (2×) Hemoglobin was autoclaved at 121° C. for 20 minutes to sterilize. Once cooled to ˜50° C. the 2×GC Agar Base and 2× Hemoglobin solutions are combined and 1% IsoVitaleX Enrichment (BD #211876) was added to the solution). Strains were incubated at 36° C. and 5% CO2 to allow growth of colonies, 24 hours before inoculum preparation. 2-fold serial dilutions of test compounds were conducted in a 96 well plate with a final volume of 75 μL per well at 2-fold the final desired concentration in Fastidious broth (Remel #R07664). For preparation of assay inoculum, a direct suspension was prepared by aseptically swabbing 10-15 colonies from agar plates into culture tubes containing 2 mL of fresh sterile saline. After the dilution plates were set up, direct suspensions were then diluted in a cuvette containing sterile saline and the optical density was measured at 600 nm. Inocula were diluted such that 75 μL of this culture in Fastidious broth results in a starting bacterial concentration of 5×10^5 CFU/mL when added to the dilution plates. The plates were incubated for ˜24 hours at 36° C. and 5% CO2.

N. gonorrhoeae WHO G = assay: Liquid broth MIC in Fastidious broth; conditions: Neisseria gonorrhoeae
[1] = biological target: T1, PBP3 from Acinetobacter baumannii (ATCC 19606) (Acinetobacter baumannii, UniProt A0ABX6CK25); assay: Bocillin-FL fluorescence polarization competition binding, A. baumannii PBP3; conditions: fluorescence polarization competition binding assay using Bocillin-FL; read-out: A. baumannii PBP3 Potency
T1 sequence (A0ABX6CK25 64-610): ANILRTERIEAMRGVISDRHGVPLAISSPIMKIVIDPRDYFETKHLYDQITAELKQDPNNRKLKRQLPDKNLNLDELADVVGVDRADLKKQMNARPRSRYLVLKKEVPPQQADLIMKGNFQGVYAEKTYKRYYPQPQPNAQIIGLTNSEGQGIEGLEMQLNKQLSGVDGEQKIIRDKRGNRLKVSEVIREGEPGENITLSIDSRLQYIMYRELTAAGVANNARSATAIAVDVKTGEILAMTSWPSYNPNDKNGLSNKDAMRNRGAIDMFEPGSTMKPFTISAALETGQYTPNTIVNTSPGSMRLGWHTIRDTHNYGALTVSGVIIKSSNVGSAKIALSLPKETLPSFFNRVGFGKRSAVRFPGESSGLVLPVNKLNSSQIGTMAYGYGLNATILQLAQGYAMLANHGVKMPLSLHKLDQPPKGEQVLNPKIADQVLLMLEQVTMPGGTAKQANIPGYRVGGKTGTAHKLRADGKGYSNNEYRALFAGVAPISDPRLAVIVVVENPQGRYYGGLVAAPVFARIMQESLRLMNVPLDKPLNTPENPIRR
Outline: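 Purified PBP was preincubated with inhibitor (E. coli PBP3 1.5 μM, 30 min; P. aeruginosa PBP3 0.75 μM, A. baumannii PBP3 0.2 μM and PBP1a 1 μM, 15 min), then Bocillin-FL (0.1 μM; 0.05 μM for PBP1a) added and FP read up to 60 min. EC50 = 50% loss of bound probe.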

A. baumannii 1258916 = assay: microbe, parasite or virus in culture; format: cell-based, Acinetobacter baumannii; conditions: Acinetobacter baumannii, 1258916, read-out: MIC, A. baumannii 1258916
N. gonorrhoeae WHO K = assay: Liquid broth MIC in Fastidious broth; conditions: Neisseria gonorrhoeae
A. baumannii CDC-0036 = assay: microbe, parasite or virus in culture; format: cell-based; conditions: Acinetobacter baumannii, CDC0036, read-out: MIC, A. baumannii CDC-0036
P. aeruginosa CDC-0095 = assay: microbe, parasite or virus in culture; format: cell-based; conditions: Pseudomonas aeruginosa, CDC0095, read-out: Minimum inhibitory concentration, P. aeruginosa CDC-0095
N. gonorrhoeae WHO Z = assay: Liquid broth MIC in Fastidious broth; conditions: Neisseria gonorrhoeae
[2] = FA1090, read-out: Minimum Inhibitory Concentration, FA 1090
[3] = read-out: Minimum Inhibitory Concentration, WHO M
[4] = read-out: Minimum Inhibitory Concentration, WHO Q
[5] = read-out: Minimum Inhibitory Concentration, WHO X
[6] = read-out: Minimum Inhibitory Concentration, WHO G
[7] = read-out: Minimum Inhibitory Concentration, WHO K
[8] = read-out: Minimum Inhibitory Concentration, WHO Z
[9] = FA1090, read-out: Minimum Inhibitory Concentration (MIC), N. gonorrhoeae FA 1090
[10] = read-out: Minimum Inhibitory Concentration (MIC), N. gonorrhoeae WHO M
[11] = read-out: Minimum Inhibitory Concentration (MIC), N. gonorrhoeae WHO Q
[12] = read-out: Minimum Inhibitory Concentration (MIC), N. gonorrhoeae WHO X
[13] = read-out: Minimum Inhibitory Concentration (MIC), N. gonorrhoeae WHO G
[14] = read-out: Minimum Inhibitory Concentration (MIC), N. gonorrhoeae WHO K
[15] = read-out: Minimum Inhibitory Concentration (MIC), N. gonorrhoeae WHO Z

Row | SMILES | MIC (N. gonorrhoeae FA1090; [2]) [µg/mL] | MIC (N. gonorrhoeae WHO M; [3]) [µg/mL] | MIC (N. gonorrhoeae WHO Q; [4]) [µg/mL] | MIC (N. gonorrhoeae WHO X; [5]) [µg/mL] | MIC (N. gonorrhoeae WHO G; [6]) [µg/mL] | pIC50 [1] | MIC (A. baumannii 1258916) [µg/mL] | MIC (N. gonorrhoeae WHO K; [7]) [µg/mL] | MIC (A. baumannii CDC-0036) [µg/mL] | MIC (P. aeruginosa CDC-0095) [µg/mL] | MIC (N. gonorrhoeae WHO Z; [8]) [µg/mL] | MIC (N. gonorrhoeae FA1090; [9]) [µg/mL] | MIC (N. gonorrhoeae WHO M; [10]) [µg/mL] | MIC (N. gonorrhoeae WHO Q; [11]) [µg/mL] | MIC (N. gonorrhoeae WHO X; [12]) [µg/mL] | MIC (N. gonorrhoeae WHO G; [13]) [µg/mL] | MIC (N. gonorrhoeae WHO K; [14]) [µg/mL] | MIC (N. gonorrhoeae WHO Z; [15]) [µg/mL]
1 | O=C(NCCS(=O)(=O)N1CCN(C(=O)NC(C(=O)N[C@H]2Cc3ccc(F)c(C(=O)O)c3OB2O)c2cc(F)c(O)c(O)c2Cl)C1=O)Nc1cccc(O)c1 (stereo partly drawn) [Example 266, (3R)-3-(2-(2-chloro-5-fluoro-3,4-dihydroxyphenyl)-2-(3-((2-(3-(3-hydroxyphenyl)ureido)ethyl)sulfonyl)-2-oxoimidazolidine-1-carboxamido)acetamido)-7-fluoro-2-hydroxy-3,4-dihydro-2H-benzo[e][1,2]oxaborinine-8-carboxylic acid] | 1 to 2 (≈ 1.25 to 2.51 µM) | 4 to 8 (≈ 5.02 to 10 µM) | 16 to 32 (≈ 20.1 to 40.2 µM) | > 64 | 16 to 32 (≈ 20.1 to 40.2 µM) | > 5.00 | < 1 | 16 to 32 (≈ 20.1 to 40.2 µM) | 2 to 4 (≈ 2.51 to 5.02 µM) | 8 to 16 (≈ 10 to 20.1 µM) | 4 to 8 (≈ 5.02 to 10 µM) |  |  |  |  |  |  | 
2 | O=C(NCCN1CCN(C(=O)NC(C(=O)N[C@H]2Cc3ccc(F)c(C(=O)O)c3OB2O)c2cc(F)c(O)c(O)c2Cl)C(=O)C1=O)Nc1ccc(O)cc1 (stereo partly drawn) [Example 219, (3R)-3-(2-(2-chloro-5-fluoro-3,4-dihydroxyphenyl)-2-(4-(2-(3-(4-hydroxyphenyl)ureido)ethyl)-2,3-dioxopiperazine-1-carboxamido)acetamido)-7-fluoro-2-hydroxy-3,4-dihydro-2H-benzo[e][1,2]oxaborinine-8-carboxylic acid] |  |  |  |  |  | > 5.00 | 2 to 4 (≈ 2.63 to 5.26 µM) |  | 8 to 16 (≈ 10.5 to 21 µM) | 8 to 16 (≈ 10.5 to 21 µM) |  | 1 to 2 (≈ 1.31 to 2.63 µM) | 4 to 8 (≈ 5.26 to 10.5 µM) | > 64 | > 64 | 16 to 32 (≈ 21 to 42.1 µM) | > 64 | 16 to 32 (≈ 21 to 42.1 µM)
3 | O=C(NCCCN1CCN(C(=O)NC(C(=O)N[C@H]2Cc3ccc(F)c(C(=O)O)c3OB2O)c2cc(F)c(O)c(O)c2Cl)C1=O)c1ccncc1 (stereo partly drawn) [Example 256, (3R)-3-(2-(2-chloro-5-fluoro-3,4-dihydroxyphenyl)-2-(3-(3-(isonicotinamido)propyl)-2-oxoimidazolidine-1-carboxamido)acetamido)-7-fluoro-2-hydroxy-3,4-dihydro-2H-benzo[e][1,2]oxaborinine-8-carboxylic acid] | 4 to 8 (≈ 5.58 to 11.2 µM) | 16 to 32 (≈ 22.3 to 44.6 µM) | > 64 | > 64 | 16 to 32 (≈ 22.3 to 44.6 µM) | > 5.00 | < 1 | > 64 | 2 to 4 (≈ 2.79 to 5.58 µM) | 2 to 4 (≈ 2.79 to 5.58 µM) | 16 to 32 (≈ 22.3 to 44.6 µM) |  |  |  |  |  |  | 
4 | O=C(CN1CCN(C(=O)NC(C(=O)N[C@H]2Cc3ccc(F)c(C(=O)O)c3OB2O)c2cc(F)c(O)c(O)c2Cl)C(=O)C1=O)Nc1nccs1 (stereo partly drawn) [Example 235, (3R)-3-(2-(2-chloro-5-fluoro-3,4-dihydroxyphenyl)-2-(2,3-dioxo-4-(2-oxo-2-(thiazol-2-ylamino)ethyl)piperazine-1-carboxamido)acetamido)-7-fluoro-2-hydroxy-3,4-dihydro-2H-benzo[e][1,2]oxaborinine-8-carboxylic acid] |  |  |  |  |  | > 5.00 | 2 to 4 (≈ 2.77 to 5.53 µM) |  | 2 to 4 (≈ 2.77 to 5.53 µM) | 2 to 4 (≈ 2.77 to 5.53 µM) |  | 1 to 2 (≈ 1.38 to 2.77 µM) | 4 to 8 (≈ 5.53 to 11.1 µM) | 16 to 32 (≈ 22.1 to 44.3 µM) | > 64 | 4 to 8 (≈ 5.53 to 11.1 µM) | 16 to 32 (≈ 22.1 to 44.3 µM) | 16 to 32 (≈ 22.1 to 44.3 µM)
5 | O=C(NCCN1CCN(C(=O)NC(C(=O)N[C@H]2Cc3ccc(F)c(C(=O)O)c3OB2O)c2cc(F)c(O)c(O)c2Cl)C1=O)c1ccccc1 (stereo partly drawn) [Example 242, (3R)-3-(2-(3-(2-benzamidoethyl)-2-oxoimidazolidine-1-carboxamido)-2-(2-chloro-5-fluoro-3,4-dihydroxyphenyl)acetamido)-7-fluoro-2-hydroxy-3,4-dihydro-2H-benzo[e][1,2]oxaborinine-8-carboxylic acid] |  |  |  |  |  | > 5.00 | < 1 |  | 2 to 4 (≈ 2.85 to 5.7 µM) | 2 to 4 (≈ 2.85 to 5.7 µM) |  | 1 to 2 (≈ 1.42 to 2.85 µM) | 16 to 32 (≈ 22.8 to 45.6 µM) | > 64 | > 64 | 16 to 32 (≈ 22.8 to 45.6 µM) | > 64 | 16 to 32 (≈ 22.8 to 45.6 µM)
6 | O=C(NCCN1CCN(C(=O)N[C@@H](C(=O)N[C@H]2Cc3ccc(F)c(C(=O)O)c3OB2O)c2cc(F)c(O)c(O)c2Cl)C(=O)C1=O)Nc1cccnc1 [Example 222, (R)-3-((R)-2-(2-chloro-5-fluoro-3,4-dihydroxyphenyl)-2-(2,3-dioxo-4-(2-(3-(pyridin-3-yl)ureido)ethyl)piperazine-1-carboxamido)acetamido)-7-fluoro-2-hydroxy-3,4-dihydro-2H-benzo[e][1,2]oxaborinine-8-carboxylic acid] |  |  |  |  |  | > 5.00 | 2 to 4 (≈ 2.68 to 5.36 µM) |  | 2 to 4 (≈ 2.68 to 5.36 µM) | 8 to 16 (≈ 10.7 to 21.5 µM) |  | 1 to 2 (≈ 1.34 to 2.68 µM) | 4 to 8 (≈ 5.36 to 10.7 µM) | > 64 | > 64 | 4 to 8 (≈ 5.36 to 10.7 µM) | > 64 | > 64
7 | O=C(NCCN1CCN(C(=O)NC(C(=O)N[C@H]2Cc3ccc(F)c(C(=O)O)c3OB2O)c2cc(F)c(O)c(O)c2Cl)C1=O)c1ccc(O)cc1 (stereo partly drawn) [Example 243, (3R)-3-(2-(2-chloro-5-fluoro-3,4-dihydroxyphenyl)-2-(3-(2-(4-hydroxybenzamido)ethyl)-2-oxoimidazolidine-1-carboxamido)acetamido)-7-fluoro-2-hydroxy-3,4-dihydro-2H-benzo[e][1,2]oxaborinine-8-carboxylic acid] |  |  |  |  |  | > 5.00 | < 1 |  | < 1 | 8 to 16 (≈ 11.1 to 22.3 µM) |  | 4 to 8 (≈ 5.57 to 11.1 µM) | 4 to 8 (≈ 5.57 to 11.1 µM) | > 64 | > 64 | 16 to 32 (≈ 22.3 to 44.6 µM) | > 64 | 16 to 32 (≈ 22.3 to 44.6 µM)
8 | O=C(CN1CCN(C(=O)NC(C(=O)N[C@H]2Cc3ccc(F)c(C(=O)O)c3OB2O)c2cc(F)c(O)c(O)c2Cl)C(=O)C1=O)Nc1ccncc1 (stereo partly drawn) [Example 233, (3R)-3-(2-(2-chloro-5-fluoro-3,4-dihydroxyphenyl)-2-(2,3-dioxo-4-(2-oxo-2-(pyridin-4-ylamino)ethyl)piperazine-1-carboxamido)acetamido)-7-fluoro-2-hydroxy-3,4-dihydro-2H-benzo[e][1,2]oxaborinine-8-carboxylic acid] |  |  |  |  |  | > 5.00 | < 1 |  | 2 to 4 (≈ 2.79 to 5.58 µM) | 2 to 4 (≈ 2.79 to 5.58 µM) |  | 1 to 2 (≈ 1.4 to 2.79 µM) | 4 to 8 (≈ 5.58 to 11.2 µM) | 16 to 32 (≈ 22.3 to 44.6 µM) | > 64 | 4 to 8 (≈ 5.58 to 11.2 µM) | 16 to 32 (≈ 22.3 to 44.6 µM) | 16 to 32 (≈ 22.3 to 44.6 µM)
9 | CN(CCN1CCN(C(=O)N[C@@H](C(=O)N[C@H]2Cc3ccc(F)c(C(=O)O)c3OB2O)c2cc(F)c(O)c(O)c2Cl)C(=O)C1=O)Cc1cccnc1 [Example 201, (R)-3-((R)-2-(2-chloro-5-fluoro-3,4-dihydroxyphenyl)-2-(4-(2-(methyl(pyridin-3-ylmethyl)amino)ethyl)-2,3-dioxopiperazine-1-carboxamido)acetamido)-7-fluoro-2-hydroxy-3,4-dihydro-2H-benzo[e][1,2]oxaborinine-8-carboxylic acid] |  |  |  |  |  | > 5.00 | < 1 |  | 2 to 4 (≈ 2.74 to 5.47 µM) | < 1 |  | 1 to 2 (≈ 1.37 to 2.74 µM) | 4 to 8 (≈ 5.47 to 10.9 µM) | 16 to 32 (≈ 21.9 to 43.8 µM) | > 64 | 4 to 8 (≈ 5.47 to 10.9 µM) | 16 to 32 (≈ 21.9 to 43.8 µM) | > 64
